Target: T1, HSP90α (Homo sapiens, UniProt P07900)
T1 construct: gene HSP90AA1; Recombinant human HSP90 alpha protein (ab80369)
Assay: SPR (Biacore T200, […] binding model); supported by CETSA for HSP90 in MDA-MB-231 cells

Compound `C/C=C1/CC[C@H]2[C@@H]3CCC4C[C@@H](NCC)CC[C@]4(C)[C@H]3CC[C@]12C` (stereo partly drawn) [compound 1, (Z)-3β-ethylamino-pregn-17(20)-en] has a Kd of 21 µM.

From publication PMC9611734, “Alkaloid Derivative (Z)-3β-Ethylamino-Pregn-17(20)-en Inhibits Triple-Negative Breast Cancer Metastasis and Angiogenesis by Targeting HSP90α” (Molecules, 2022)
